# Experimental data taken from patent US12128028B2, “Heterocyclic sulfonamide derivatives and pharmaceutical uses thereof” (METRION BIOSCIENCES LIMITED, priority 2018, dated 2024).
# Biological target: human Kv1.3 (Homo sapiens (Human), UniProt P22001)
# Assay: Kv1.3 potency evaluation, automated patch clamp electrophysiology (QPatch HT) in CHO-Kv1.3 cells
# Assay type: cell-based
# Settings: whole-cell QPatch HT, % inhibition of charge, step to +30 mV, four concentrations, N≥3 cells, read-out: hKv1.3 IC50
# How it was run: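 Automated whole-cell patch clamp in CHO cells stably expressing human Kv1.3; steps from −80 to +30 mV (500 ms) at 0.067 Hz. Four cumulative concentrations after vehicle (0.1-0.3% DMSO); charge inhibition vs vehicle fitted by four-parameter logistic for IC50, N≥3 cells.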
# Chain of human Kv1.3 (P22001 whole entry): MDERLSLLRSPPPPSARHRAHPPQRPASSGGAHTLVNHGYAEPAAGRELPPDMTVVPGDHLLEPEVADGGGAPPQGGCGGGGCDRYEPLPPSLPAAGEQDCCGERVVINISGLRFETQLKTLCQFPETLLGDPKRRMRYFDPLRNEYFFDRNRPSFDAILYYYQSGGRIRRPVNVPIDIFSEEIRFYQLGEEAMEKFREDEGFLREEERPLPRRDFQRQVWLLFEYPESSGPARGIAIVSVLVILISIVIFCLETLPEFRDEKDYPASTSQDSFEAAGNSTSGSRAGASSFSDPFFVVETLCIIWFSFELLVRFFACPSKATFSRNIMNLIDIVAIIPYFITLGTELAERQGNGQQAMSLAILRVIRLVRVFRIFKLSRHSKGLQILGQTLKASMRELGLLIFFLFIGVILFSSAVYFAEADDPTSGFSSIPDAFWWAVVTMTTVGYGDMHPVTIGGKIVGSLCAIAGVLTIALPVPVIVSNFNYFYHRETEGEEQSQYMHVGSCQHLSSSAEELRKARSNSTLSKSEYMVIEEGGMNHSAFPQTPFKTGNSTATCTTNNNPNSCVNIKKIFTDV
row,IC50,Compound
1,168 nM,C[C@]1(C(=O)NCC2CC2)CN=C(C23CC(N(Cc4ccc(C(F)(F)F)cc4)S(=O)(=O)c4ccc(F)cc4)(C2)C3)N1 (mixture of isomers) [Example 218]
2,89 nM,CC1(C)N=C(C23CC(N(Cc4ccc(Cl)c(F)c4)S(=O)(=O)c4ccccc4)(C2)C3)N[C@H]1C(=O)NCCC1(C(F)(F)F)CC1 (mixture of isomers) [Example 149]
3,84 nM,CC(C)(C)CS(=O)(=O)N(Cc1ccc(Cl)cc1)C12CC(C3=NC(C)(C)[C@H](C(=O)NCCC(F)(F)F)N3)(C1)C2 (mixture of isomers) [Example 139]
4,48 nM,CC1(C)N=C(C23CC(N(Cc4ccc(Cl)cc4)S(=O)(=O)c4ccccc4)(C2)C3)N[C@H]1C(=O)NCC(C)(C)C(F)(F)F (mixture of isomers) [Example 49]
5,94 nM,CC1(C)N=C(C23CC(N(Cc4ccc(C(F)(F)F)cc4)S(=O)(=O)c4ccc(F)cc4)(C2)C3)NC1C(=O)N1CCCCC1 (stereo not shown) [Example 157]
6,348 nM,CC1(C)N=C(C23CC(N(Cc4ccc(Cl)c(F)c4)S(=O)(=O)c4ccccc4)(C2)C3)N[C@H]1C(=O)N1CCOCC1 (mixture of isomers) [Example 257]
7,90 nM,CC(F)(F)CCS(=O)(=O)N(Cc1ccc(Cl)c(Cl)c1)C12CC(C3=NC(C)(C)[C@H](C(=O)NCCC(F)(F)F)N3)(C1)C2 (mixture of isomers) [Example 150]
8,46 nM,C[C@H]1CC(F)(F)CN1C(=O)[C@@H]1NC(C23CC(N(Cc4ccc(Cl)c(F)c4)S(=O)(=O)c4ccccc4)(C2)C3)=NC1(C)C (mixture of isomers) [Example 44]
9,92 nM,CC1(C)N=C(C23CC(N(Cc4cc(F)c(Cl)c(F)c4)S(=O)(=O)c4ccccc4)(C2)C3)N[C@H]1C(=O)NCCC(F)(F)F (mixture of isomers) [Example 155]
10,749 nM,CC1(C)N=C(C23CC(N(Cc4ccc(Cl)c(Cl)c4)S(=O)(=O)c4ccccc4)(C2)C3)N[C@H]1C(=O)N1CCC2(COC2)C1 (mixture of isomers) [Example 283]
11,48 nM,CC1(C)N=C(C23CC(N(Cc4ccc(Cl)cc4)S(=O)(=O)c4ccccn4)(C2)C3)N[C@H]1C(=O)NCCC(F)(F)F (mixture of isomers) [Example 48]
12,67 nM,CC1(C)N=C(C23CC(N(Cc4ccc(Cl)cc4)S(=O)(=O)c4ccccc4C#N)(C2)C3)N[C@H]1C(=O)NCCC(F)(F)F (mixture of isomers) [Example 99]
13,481 nM,CN(C)C(=O)[C@@]1(C)CN=C(C23CC(N(Cc4ccc(C(F)(F)F)cc4)S(=O)(=O)c4ccc(F)cc4)(C2)C3)N1 (mixture of isomers) [Example 269]
14,84 nM,CC(C)(CC(F)(F)F)NC(=O)[C@@H]1NC(C23CC(N(Cc4ccc(Cl)c(F)c4)S(=O)(=O)c4ccccc4)(C2)C3)=NC1(C)C (mixture of isomers) [Example 141]
15,71 nM,CC1(C)N=C(C23CC(N(Cc4ccc(Cl)cc4)S(=O)(=O)c4ccccc4Cl)(C2)C3)N[C@H]1C(=O)NCCC(F)(F)F (mixture of isomers) [Example 107]
16,99 nM,CC1(C)N=C(C23CC(N(Cc4ccc(Cl)c(Cl)c4)S(=O)(=O)CCC(F)F)(C2)C3)N[C@H]1C(=O)NCCC(F)(F)F (mixture of isomers) [Example 165]
17,55 nM,CC1(C)N=C(C23CC(N(Cc4ccc(Cl)c(F)c4)S(=O)(=O)c4ccccc4)(C2)C3)N[C@H]1C(=O)NC1CC1 (mixture of isomers) [Example 68]
18,235 nM,CC(C)NC(=O)[C@H]1NC(C23CC(N(Cc4ccc(Cl)c(F)c4)S(=O)(=O)c4ccccc4)(C2)C3)=NC1(C)C (mixture of isomers) [Example 240]
19,69 nM,CC1(C)N=C(C23CC(N(Cc4ccc(Cl)cc4)S(=O)(=O)CC4CCC4)(C2)C3)N[C@H]1C(=O)NCCC(F)(F)F (mixture of isomers) [Example 105]
20,323 nM,C[C@]1(C(=O)N2CC3(CCC3)C2)CN=C(C23CC(N(Cc4ccc(C(F)(F)F)cc4)S(=O)(=O)c4ccc(F)cc4)(C2)C3)N1 (mixture of isomers) [Example 253]
21,42 nM,CC1(C)N=C(C23CC(N(Cc4ccc(Cl)c(F)c4)S(=O)(=O)c4ccccc4)(C2)C3)N[C@H]1C(=O)N1CCCCC1 (mixture of isomers) [Example 31]
22,307 nM,CC1(C)N=C(C23CC(N(Cc4ccc(C(F)(F)F)cc4)S(=O)(=O)c4ccc(F)cc4)(C2)C3)N[C@@H]1C(=O)NCCC(F)(F)F (mixture of isomers) [Example 251]
23,208 nM,CC1(NC(=O)C2NC(C34CC(N(Cc5ccc(C(F)(F)F)cc5)S(=O)(=O)c5ccc(F)cc5)(C3)C4)=NC2(C)C)CCC1 (stereo not shown) [Example 232]
24,62 nM,C[C@H]1CCN(C(=O)[C@@H]2NC(C34CC(N(Cc5ccc(Cl)c(F)c5)S(=O)(=O)c5ccccc5)(C3)C4)=NC2(C)C)C1 (mixture of isomers) [Example 85]

row,IC50,Compound
1,124 nM,CC1(C)N=C(C23CC(N(Cc4ccc(Cl)c(Cl)c4)S(=O)(=O)c4ccccc4)(C2)C3)N[C@H]1C(=O)N1CC2(C1)CC(F)(F)C2 (mixture of isomers) [Example 195]
2,976 nM,CC1(C)N=C(C23CC(N(Cc4ccc(Cl)cc4)S(=O)(=O)C(C)(C)C)(C2)C3)N[C@H]1C(=O)NCCC(F)(F)F (mixture of isomers) [Example 287]
3,148 nM,CC1N=C(C23CC(N(Cc4ccc(C(F)(F)F)cc4)S(=O)(=O)c4ccc(F)cc4)(C2)C3)N[C@@]1(C)C(=O)NCCC(F)(F)F (mixture of isomers) [Example 211]
4,65 nM,CCCS(=O)(=O)N(Cc1ccc(Cl)c(Cl)c1)C12CC(C3=NC(C)(C)[C@H](C(=O)N4CCC(F)(F)CC4)N3)(C1)C2 (mixture of isomers) [Example 96]
5,131 nM,CC1(C)N=C(C23CC(N(Cc4ccc(Cl)cc4)S(=O)(=O)CCC(F)(F)F)(C2)C3)N[C@H]1C(=O)NCCC(F)(F)F (mixture of isomers) [Example 201]
6,81 nM,CC1(C)N=C(C23CC(N(Cc4ccc(Cl)c(F)c4)S(=O)(=O)c4ccccc4)(C2)C3)N[C@@H]1C(=O)NCC1CC(F)(F)C1 (mixture of isomers) [Example 135]
7,595 nM,C[C@]1(C(=O)NCCC2CCC2)CN=C(C23CC(N(Cc4ccc(C(F)(F)F)cc4)S(=O)(=O)c4ccc(F)cc4)(C2)C3)N1 (mixture of isomers) [Example 278]
8,78 nM,CC1(C)N=C(C23CC(N(Cc4ccc(Cl)c(F)c4)S(=O)(=O)c4ccccc4)(C2)C3)N[C@H]1C(=O)N1CCCC(F)(F)CC1 (mixture of isomers) [Example 131]
9,60 nM,CC1(C)N=C(C23CC(N(Cc4ccc(Cl)cc4)S(=O)(=O)c4ccccc4)(C2)C3)N[C@H]1C(=O)N1CCC(F)(F)CC1 (mixture of isomers) [Example 76]
10,74 nM,CN(C(=O)[C@@H]1NC(C23CC(N(Cc4ccc(Cl)c(Cl)c4)S(=O)(=O)c4ccccc4)(C2)C3)=NC1(C)C)C1CC(C(F)F)C1 (mixture of isomers) [Example 120]
11,48 nM,CC(C)(F)CNC(=O)[C@@H]1NC(C23CC(N(Cc4ccc(Cl)c(Cl)c4)S(=O)(=O)CCC(F)F)(C2)C3)=NC1(C)C (mixture of isomers) [Example 50]
12,608 nM,O=C(NCC1CCC1)C1(Cc2ccccc2)CN=C(C23CC(N(Cc4ccc(C(F)(F)F)cc4)S(=O)(=O)c4ccc(F)cc4)(C2)C3)N1 (stereo not shown) [Example 279]
13,73 nM,CC1(C)N=C(C23CC(N(Cc4ccc(Cl)c(F)c4)S(=O)(=O)c4ccccc4)(C2)C3)N[C@H]1C(=O)NC1CC(F)(F)C1 (mixture of isomers) [Example 114]
14,63 nM,CC1(C)N=C(C23CC(N(Cc4ccc(Cl)c(F)c4)S(=O)(=O)c4ccccc4)(C2)C3)N[C@H]1C(=O)NC1CC(C(F)F)C1 (mixture of isomers) [Example 89]
15,615 nM,CC1(C)CC(NC(=O)[C@@]2(C)CN=C(C34CC(N(Cc5ccc(C(F)(F)F)cc5)S(=O)(=O)c5ccc(F)cc5)(C3)C4)N2)C1 (mixture of isomers) [Example 280]
16,415 nM,CC(C)C1(C(=O)NCC2CCC2)CN=C(C23CC(N(Cc4ccc(C(F)(F)F)cc4)S(=O)(=O)c4ccc(F)cc4)(C2)C3)N1 (stereo not shown) [Example 266]
17,40 nM,CC1(C)N=C(C23CC(N(Cc4ccccc4)S(=O)(=O)c4ccccc4)(C2)C3)N[C@H]1C(=O)NCCC(F)(F)F (mixture of isomers) [Example 25]
18,243 nM,Cn1ccc(S(=O)(=O)N(Cc2ccc(Cl)cc2)C23CC(C4=NC(C)(C)[C@H](C(=O)NCCC(F)(F)F)N4)(C2)C3)n1 (mixture of isomers) [Example 241]
19,213 nM,CC1(C)N=C(C23CC(N(Cc4ccc(C(F)(F)F)cc4)S(=O)(=O)c4ccc(F)cc4)(C2)C3)NC1C(=O)N1CCC(F)(F)CC1 (stereo not shown) [Example 236]
20,1020 nM,C[C@@]1(C(=O)Nc2ccccc2)CN=C(C23CC(N(Cc4ccc(C(F)(F)F)cc4)S(=O)(=O)c4ccc(F)cc4)(C2)C3)N1 (mixture of isomers) [Example 288]
21,90 nM,CN(C(=O)[C@@H]1NC(C23CC(N(Cc4ccc(Cl)c(F)c4)S(=O)(=O)c4ccccc4)(C2)C3)=NC1(C)C)C1CC(F)(F)C1 (mixture of isomers) [Example 151]
22,97 nM,CC1(C)N=C(C23CC(N(Cc4ccc(Cl)c(Cl)c4)S(=O)(=O)c4ccccc4)(C2)C3)N[C@H]1C(=O)NC1CC1C(F)(F)F (mixture of isomers) [Example 160]
23,44 nM,CC(C)(F)CNC(=O)[C@@H]1NC(C23CC(N(Cc4ccc(Cl)c(F)c4)S(=O)(=O)c4ccccc4)(C2)C3)=NC1(C)C (mixture of isomers) [Example 35]

row,Compound,IC50
1,CC1(C)N=C(C23CC(N(Cc4ccc(Cl)c(F)c4)S(=O)(=O)c4ccccc4)(C2)C3)N[C@H]1C(=O)NCCC(F)(F)F (mixture of isomers) [Example 13],37 nM
2,CC1(C)N=C(C23CC(N(Cc4ccc(Cl)c(F)c4)S(=O)(=O)c4ccccc4)(C2)C3)N[C@H]1C(=O)NC[C@H]1CC1(F)F (mixture of isomers) [Example 22],39 nM
